Earlier results as cited in patent publication US12070503B2, “Transdermal carrier” (priority 2014, dated 2024).

What was measured:
[1] = system: hair follicles; settings: concentrations of 2% and 5%; published studies
[2] = system: HSV-infected cells; settings: compared with alternatives such as Abreva
[3] = difficult to measure, considered generally

Nc1cc(N2CCCCC2)nc(N)[n+]1[O-] [minoxidil]
treatment time before evidence of hair growth was demonstrated [1]: > 8 months

Nc1nc2c(ncn2CCC(CO)CO)c(=O)[nH]1 [Penciclovir, penciclovir]
effectiveness against HSV-infected cells [2]: more effective

C[C@H](CCC(=O)O)[C@H]1CC[C@H]2[C@@H]3CC[C@@H]4C[C@H](O)CC[C@]4(C)[C@H]3C[C@H](O)[C@]12C [DCA, deoxycholic acid]
half-life [3]: less than 30 minutes
